*1 amine or outer side, *2 acyl side, *3 side chain or, on linkers, in order; H or OH if unused. Where a SMILES comes first, the peptide text is derived from it. Bridges are numbered along the chain shown (N, C = ends). [ ]: non-standard residue; d: D form. The star is where a group is joined. X17 = O=C(CC[C@H](NC(=O)CN1CCN2CCN3CCN(CC1)CC(=O)[O][Lu]([O]C(=O)C2)[O]C(=O)C3)C(=O)*)NC[C@H](O)[C@@H](O)[C@H](O)[C@H](O)CO; X20 = O=C(CC[C@H](NC(=O)CN1CCN2CCN3CCN(CC1)CC(=O)[O][Ga]([O]C(=O)C2)[O]C(=O)C3)C(=O)*)NC[C@H](O)[C@@H](O)[C@H](O)[C@H](O)CO; DOTA(Lu) = O=C1CN2CCN3CCN(CC(=O)*)CCN(CC2)CC(=O)[O][Lu]([O]1)[O]C(=O)C3; NH(1-deoxy-D-glucityl) = OC[C@@H](O)[C@@H](O)[C@H](O)[C@@H](O)CN*; Trp(5-Cl) = N[C@@H](Cc1c[nH]c2ccc(Cl)cc12)C(=O)O; Pyridine(2,6-diCH2) = c1cc(C[*:1])nc(C[*:2])c1; Pro(4R-NH2) = N[C@H]1CN[C@H](C(=O)O)C1; Glutaryl = O=C(CCCC(=O)[*:2])[*:1]; Hyp = O=C(O)[C@@H]1C[C@@H](O)CN1; X1 = O=C(CN1CCC(N[*:1])CC1)[*:2]; Api = NC1(C(=O)O)CCNCC1; Thp = NC1(C(=O)O)CCOCC1
biological target: T1, GIPR (CHO-K1-hGIPR cells) (Homo sapiens, UniProt P48546); test: FACS binding assay; conditions: pIC50 Category, competition with 20 nM GIP-057, 4° C., 1 hour
T1 construct: host or cells: CHO-K1
T1 sequence (P48546 22-466): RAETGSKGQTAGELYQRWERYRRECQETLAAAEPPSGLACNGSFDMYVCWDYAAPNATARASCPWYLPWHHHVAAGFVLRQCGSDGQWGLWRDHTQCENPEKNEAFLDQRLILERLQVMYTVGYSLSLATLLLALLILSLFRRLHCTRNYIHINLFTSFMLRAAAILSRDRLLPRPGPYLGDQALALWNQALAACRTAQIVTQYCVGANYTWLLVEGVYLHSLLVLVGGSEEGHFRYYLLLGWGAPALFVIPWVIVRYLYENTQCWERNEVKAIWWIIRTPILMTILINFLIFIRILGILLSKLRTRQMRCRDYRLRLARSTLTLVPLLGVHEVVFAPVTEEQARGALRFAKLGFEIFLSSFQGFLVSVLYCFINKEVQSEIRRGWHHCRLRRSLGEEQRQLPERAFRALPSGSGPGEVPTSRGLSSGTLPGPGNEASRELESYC
Outline: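 Read-out: flow cytometric median fluorescence intensity, APC/Cy5 channel, plotted vs peptide conc.; 4PL fit → EC50/pEC50 or IC50/pIC50. Cells: CHO-K1-hGIPR, Accutase-detached, 500.000/mL in PBS + 1% FCS. Detection: APC-streptavidin 1 μg/mL, 30 min, on ice.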

Q: For `CC[C@H](C)[C@@H]1NC(=O)[C@H](CC(C)C)NC(=O)C2(CCN(C(=O)[C@H](CCC(=O)NC[C@H](O)[C@@H](O)[C@H](O)[C@H](O)CO)NC(=O)CN3CCN4CCN5CCN(CC3)CC(=O)[O][Ga]([O]C(=O)C4)[O]C(=O)C5)CC2)NC(=O)[C@@H](NC(=O)[C@@H](CC(C)C)NC(=O)[C@H](CCC(=O)O)NC(=O)[C@@H]2C[C@@H](N)CN2C(=O)[C@H](Cc2c[nH]c3ccc(Cl)cc23)NC(=O)[C@H](Cc2c[nH]c3ccccc23)NC(=O)[C@H](CC(=O)O)NC(=O)CN2CCC(NC(=O)CCCC(=O)NC[C@H](O)[C@@H](O)[C@H](O)[C@H](O)CO)CC2)CSCc2cccc(n2)CSC[C@@H](C(=O)NC2CCN(CC(=O)N[C@H](CCC(=O)NC[C@H](O)[C@@H](O)[C@H](O)[C@H](O)CO)C(N)=O)CC2)NC1=O` [GIP-059, AGLU-Glutar-APAc-Asp-Trp-5Clw-Tap-Glu-leu-[Cys(2Lut)-Apc(GaDOTA-glu(AGLU))-Leu-Ile-Cys]-APAc-glu(AGLU)-NH2] ({NH(1-deoxy-D-glucityl)-Glutaryl}-[X1]DW[Trp(5-Cl)][Pro(4R-NH2)]E[dL]C[Api](X20)LIC[X1][dE](NH(1-deoxy-D-glucityl))-NH2; linker 8-12 via Pyridine(2,6-diCH2)), which IC50 is on record?
A: < 10 nM

Q: For `CC[C@H](C)[C@@H]1NC(=O)[C@H](CC(C)C)NC(=O)C2(CCN(C(=O)[C@H](CCC(=O)NC[C@H](O)[C@@H](O)[C@H](O)[C@H](O)CO)NC(=O)CN3CCN4CCN5CCN(CC3)CC(=O)[O][Lu]([O]C(=O)C4)[O]C(=O)C5)CC2)NC(=O)[C@@H](NC(=O)[C@@H](CC(C)C)NC(=O)[C@H](CCC(=O)O)NC(=O)[C@@H]2C[C@@H](N)CN2C(=O)[C@H](Cc2c[nH]c3ccc(Cl)cc23)NC(=O)[C@H](Cc2c[nH]c3ccccc23)NC(=O)[C@H](CC(=O)O)NC(=O)CN2CCC(NC(=O)CCCC(=O)NC[C@H](O)[C@@H](O)[C@H](O)[C@H](O)CO)CC2)CSCc2cccc(n2)CSC[C@@H](C(=O)NC2CCN(CC(=O)N[C@H](CCC(=O)NC[C@H](O)[C@@H](O)[C@H](O)[C@H](O)CO)C(N)=O)CC2)NC1=O` [GIP-061, AGLU-Glutar-APAc-Asp-Trp-5Clw-Tap-Glu-leu-[Cys(2Lut)-Apc(LuDOTA-glu(AGLU))-Leu-Ile-Cys]-APAc-glu(AGLU)-NH2] ({NH(1-deoxy-D-glucityl)-Glutaryl}-[X1]DW[Trp(5-Cl)][Pro(4R-NH2)]E[dL]C[Api](X17)LIC[X1][dE](NH(1-deoxy-D-glucityl))-NH2; linker 8-12 via Pyridine(2,6-diCH2)), which IC50 is on record?
A: < 10 nM

Q: With `CC[C@H](C)[C@@H]1NC(=O)[C@H](CC(C)C)NC(=O)C2(CCOCC2)NC(=O)[C@@H](NC(=O)[C@@H](CC(C)C)NC(=O)[C@H](CCC(=O)O)NC(=O)[C@@H]2C[C@@H](O)CN2C(=O)[C@H](Cc2c[nH]c3ccc(Cl)cc23)NC(=O)[C@H](Cc2c[nH]c3ccccc23)NC(=O)[C@H](CC(=O)O)NC(=O)CN2CCC(NC(=O)[C@@H](CCC(=O)NC[C@H](O)[C@@H](O)[C@H](O)[C@H](O)CO)NC(=O)CN3CCN4CCN5CCN(CC3)CC(=O)[O][Lu]([O]C(=O)C4)[O]C(=O)C5)CC2)CSCc2cccc(n2)CSC[C@@H](C(=O)NC2CCN(CC(=O)N[C@H](CCC(=O)NC[C@H](O)[C@@H](O)[C@H](O)[C@H](O)CO)C(N)=O)CC2)NC1=O` [GIP-062, LuDOTA-glu(AGLU)-APAc-Asp-Trp-5Clw-Hyp-Glu-leu-[Cys(2Lut)-Thp-Leu-Ile-Cys]-APAc-glu(AGLU)-NH2] ({DOTA(Lu)}-[dE](NH(1-deoxy-D-glucityl))[X1]DW[Trp(5-Cl)][Hyp]E[dL]C[Thp]LIC[X1][dE](NH(1-deoxy-D-glucityl))-NH2; linker 9-13 via Pyridine(2,6-diCH2)) as the compound, how does the IC50 read?
A: < 10 nM

Source: patent US20250296971A1, “GASTRIC INHIBITORY PEPTIDE RECEPTOR LIGANDS” (priority 2021, published 2025)
